The supplement of paper PMC10307832

Legend:
Test in all cases: relative viability (nuclei count vs DMSO), 5 days (fraction); higher = more cells survive
[1] = compound: CO[C@H]1C[C@@H]2CC[C@@H](C)[C@@](O)(O2)C(=O)C(=O)N2CCCC[C@H]2C(=O)O[C@H]([C@H](C)C[C@@H]2CC[C@@H](OCCO)[C@H](OC)C2)CC(=O)[C@H](C)/C=C(\C)[C@@H](O)[C@@H](OC)C(=O)[C@H](C)C[C@H](C)/C=C/C=C/C=C/1C [Everolimus] + N=C(N)NC(=N)NCCc1ccccc1 [Phenformin] (partner 250 µM)
How it was run: (§1)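 Five library-drug doses in √10 steps were combined with a fixed anchor-drug dose, or a single drug was given alone, by pin tool to lung cancer cell lines in 1536-well plates the day after seeding. Nuclei were stained and counted after 5 days. Relative viability is the nuclei count in treated wells over that in vehicle wells, taken as the median of duplicate plates.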

[2] = compound: CO[C@H]1C[C@@H]2CC[C@@H](C)[C@@](O)(O2)C(=O)C(=O)N2CCCC[C@H]2C(=O)O[C@H]([C@H](C)C[C@@H]2CC[C@@H](OCCO)[C@H](OC)C2)CC(=O)[C@H](C)/C=C(\C)[C@@H](O)[C@@H](OC)C(=O)[C@H](C)C[C@H](C)/C=C/C=C/C=C/1C [Everolimus] + C[C@@H](Oc1cc(-c2cnn(C3CCNCC3)c2)cnc1N)c1c(Cl)ccc(F)c1Cl [Crizotinib] (partner 1 µM)
How it was run: as §1

[3] = compound: CO[C@H]1C[C@@H]2CC[C@@H](C)[C@@](O)(O2)C(=O)C(=O)N2CCCC[C@H]2C(=O)O[C@H]([C@H](C)C[C@@H]2CC[C@@H](OCCO)[C@H](OC)C2)CC(=O)[C@H](C)/C=C(\C)[C@@H](O)[C@@H](OC)C(=O)[C@H](C)C[C@H](C)/C=C/C=C/C=C/1C [Everolimus] + COc1cccc2cc(-c3nc([C@H]4CC[C@H](C(=O)O)CC4)n4ncnc(N)c34)[nH]c12 [OSI-027] (partner 0.5 µM)
How it was run: as §1

[4] = compound: CO[C@H]1C[C@@H]2CC[C@@H](C)[C@@](O)(O2)C(=O)C(=O)N2CCCC[C@H]2C(=O)O[C@H]([C@H](C)C[C@@H]2CC[C@@H](OCCO)[C@H](OC)C2)CC(=O)[C@H](C)/C=C(\C)[C@@H](O)[C@@H](OC)C(=O)[C@H](C)C[C@H](C)/C=C/C=C/C=C/1C [Everolimus] + CC(=O)Nc1cccc(-n2c(=O)n(C3CC3)c(=O)c3c(Nc4ccc(I)cc4F)n(C)c(=O)c(C)c32)c1 [Trametinib] (partner 0.02 µM)
How it was run: as §1

Cell Line | relative viability ([1]; first compound 0.01 µM) | relative viability ([1]; first compound 0.03162 µM) | relative viability ([1]; first compound 0.1 µM) | relative viability ([1]; first compound 0.3162 µM) | relative viability ([1]; first compound 1 µM) | relative viability ([2]; first compound 0.01 µM) | relative viability ([2]; first compound 0.03162 µM) | relative viability ([2]; first compound 0.1 µM) | relative viability ([2]; first compound 0.3162 µM) | relative viability ([2]; first compound 1 µM) | relative viability ([3]; first compound 0.01 µM) | relative viability ([3]; first compound 0.03162 µM) | relative viability ([3]; first compound 0.1 µM) | relative viability ([3]; first compound 0.3162 µM) | relative viability ([3]; first compound 1 µM) | relative viability ([4]; first compound 0.01 µM) | relative viability ([4]; first compound 0.03162 µM) | relative viability ([4]; first compound 0.1 µM) | relative viability ([4]; first compound 0.3162 µM) | relative viability ([4]; first compound 1 µM)
HCC-15 | 0.465 | 0.474 | 0.459 | 0.497 | 0.471 | 0.931 | 0.887 | 0.791 | 0.829 | 0.75 | 0.502 | 0.517 | 0.447 | 0.543 | 0.546 | 0.35 | 0.344 | 0.334 | 0.282 | 0.32
HCC-44 | 0.195 | 0.125 | 0.127 | 0.178 | 0.168 | 0.912 | 0.935 | 0.774 | 0.86 | 0.677 | 0.382 | 0.438 | 0.434 | 0.384 | 0.548 | 1.13 | 1.08 | 0.982 | 1.04 | 0.901
HCC-78 | 0.504 | 0.462 | 0.451 | 0.564 | 0.626 | 0.315 | 0.261 | 0.265 | 0.259 | 0.298 | 0.348 | 0.332 | 0.572 | 0.311 | 0.347 | 0.637 | 0.56 | 0.493 | 0.529 | 0.47
HCC-366 | 0.59 | 0.613 | 0.601 | 0.528 | 0.582 | 0.433 | 0.441 | 0.526 | 0.295 | 0.372 | 0.755 | 0.614 | 0.49 | 0.727 | 0.5 | 0.258 | 0.245 | 0.257 | 0.227 | 0.225
HCC-827 | 0.434 | 0.404 | 0.416 | 0.396 | 0.403 | 0.947 | 0.831 | 0.852 | 0.998 | 0.839 | 0.624 | 0.613 | 0.596 | 0.482 | 0.47 | 0.494 | 0.314 | 0.311 | 0.31 | 0.295
HOP-62 | 0.583 | 0.579 | 0.495 | 0.513 | 0.535 | 0.934 | 0.58 | 0.556 | 0.583 | 0.637 | 0.548 | 0.511 | 0.448 | 0.517 | 0.503 | 0.263 | 0.211 | 0.248 | 0.2 | 0.195
IA-LM |  |  |  |  |  | 0.418 | 0.424 | 0.256 | 0.478 | 0.441 |  |  |  |  |  |  |  |  |  | 
